What was measured:
[1] = Cytotoxicity in HepG2 cells, 4 days, Resazurin assay; conditions: human, HepG2 cells
HBV [2] = test: Anti-HBV activity in stable transfected HepG2.2.15 cell line (HBV DNA from secreted virions, realtime PCR); assay type: cell-based; conditions: Hepatitis B virus, HepG2.2.15, 144 h, HepG2.2.15 cells, 6 days of treatment, secreted virion HBV DNA; read-out: HepG2 2.15 EC50
HBV [3] = test: Anti-HBV activity in HepG2.117 cell line (Tet-off, intracellular HBV DNA, realtime PCR); assay type: cell-based; conditions: Hepatitis B virus, HepG2.117, 72 h, HepG2.117 cells, 3 days of treatment, intracellular HBV DNA; read-out: HepG2 117 EC50

| Compound | CC50 at 4 days [1] [nM] | EC50 (HBV [2]) [nM] | EC50 (HBV [3]) [nM] |
| --- | --- | --- | --- |
| CCC1(NS(=O)(=O)c2cccc(C(=O)Nc3ccc(F)cc3)c2)COC1 [Compound 89] | > 25000 | 540 | 720 |
| O=C(Nc1ccc(F)c(F)c1)c1cccc(S(=O)(=O)N[C@H]2CCOC2)c1 [Compound 90] | > 25000 | 380 | 510 |
| C#Cc1cc(NC(=O)c2cccc(S(=O)(=O)NC(C)C)c2)ccc1F [Compound 91] | > 25000 | 530 | 770 |
| CCc1cc(NC(=O)c2cccc(S(=O)(=O)NC(C)C)c2)ccc1F [Compound 92] | > 25000 | 310 | 2590 |
| CCC1(NS(=O)(=O)c2cccc(C(=O)Nc3ccc(F)c(C)c3)c2)COC1 [Compound 93] | > 25000 | 70 | 220 |
| Cc1cc(NC(=O)c2cccc(S(=O)(=O)NC3(C)CC3)c2)ccc1F [Compound 94] | > 25000 | 150 | 230 |
| CC(C)NS(=O)(=O)c1cccc(C(=O)Nc2ccc(F)c(C(C)C)c2)c1 [Compound 95] | > 25000 | 1400 | 2790 |
| CC(C)NS(=O)(=O)c1cccc(C(=O)Nc2ccc(F)c(C(F)F)c2)c1 [Compound 96] | > 25000 | 100 | 290 |
| Cc1cc(NC(=O)c2cccc(S(=O)(=O)NC3(C)COC3)c2)ccc1F [Compound 97] | > 25000 | 120 | 370 |
| CC[C@@H](C)NS(=O)(=O)c1cccc(C(=O)Nc2ccc(F)c(C)c2)c1 [Compound 98] | > 25000 | 100 | 310 |
| Cc1cc(NC(=O)c2cccc(S(=O)(=O)NC(C)C)c2)cc(F)c1F [Compound 99] | > 25000 | 90 | 460 |
| CC[C@@H](C)NS(=O)(=O)c1ccc(F)c(C(=O)Nc2ccc(F)c(F)c2)c1 [Compound 100] | > 25000 | 130 | 430 |
| O=C(Nc1ccc(F)c(F)c1)c1cc(S(=O)(=O)N[C@H]2CCOC2)ccc1F [Compound 101] | > 25000 | 430 | 1510 |
| O=C(Nc1ccc(F)c(C(F)F)c1)c1cccc(S(=O)(=O)N[C@H]2CCOC2)c1 [Compound 102] | > 25000 | 180 | 330 |
| N#Cc1cc(NC(=O)c2cccc(S(=O)(=O)N[C@H]3CCOC3)c2)ccc1F [Compound 105] | > 25000 | 810 | 980 |
| COc1ccc(NC(=O)c2cccc(S(=O)(=O)N[C@H]3CCOC3)c2)cc1C [Compound 107] | > 25000 | 7820 | 13800 |
| CC1(NS(=O)(=O)c2cccc(C(=O)Nc3ccc(F)c(O)c3)c2)COC1 [Compound 108] | > 25000 | 7200 | 9270 |
| COc1cc(NC(=O)c2cccc(S(=O)(=O)NC3(C)COC3)c2)ccc1F [Compound 109] | > 25000 | 1230 | 2530 |
| C=Cc1cc(NC(=O)c2cccc(S(=O)(=O)NC3(C)COC3)c2)ccc1F [Compound 110] | > 25000 | 660 | 850 |
| CC1(NS(=O)(=O)c2cccc(C(=O)Nc3ccc(F)c(CO)c3)c2)COC1 [Compound 111] | > 25000 | 4480 | 1480 |
| Cc1cc(NC(=O)c2cccc(S(=O)(=O)N[C@H]3CCOC3)c2F)ccc1F [Compound 112] | > 25000 | 30 | 140 |
| Cc1ccc(S(=O)(=O)NC2(C)COC2)cc1C(=O)Nc1ccc(F)c(C(F)F)c1 [Compound 113] | > 25000 | 150 | 180 |
| COc1ccc(NC(=O)c2cccc(S(=O)(=O)NC(C)C)c2)cc1F [Compound 114] | > 25000 | 1350 | 3150 |
| Cc1cc(NC(=O)c2cccc(S(=O)(=O)NC(C)CN3CCN(C)CC3)c2)ccc1F (stereo not drawn) [Compound 116] | > 25000 | 1940 | 900 |
| Cc1cc(NC(=O)c2cccc(S(=O)(=O)NC(C)CN3CCOCC3)c2)ccc1F (stereo not drawn) [Compound 117] | > 25000 | 880 | 500 |
| Cc1cc(NC(=O)c2cccc(S(=O)(=O)NC(C)Cc3ccccn3)c2)ccc1F (stereo not drawn) [Compound 120] | > 25000 | 530 | 510 |
| Cc1cc(NC(=O)c2cc(S(=O)(=O)N[C@H]3CCOC3)ccc2C)ccc1F [Compound 121] | > 25000 | 160 | 130 |
| Cc1cc(NC(=O)c2cc(S(=O)(=O)NC3(C)COC3)ccc2C)ccc1F [Compound 122] | > 25000 | 130 | 180 |

| Compound | CC50 at 4 days [1] [nM] | EC50 (HBV [2]) [nM] | EC50 (HBV [3]) [nM] |
| --- | --- | --- | --- |
| Cc1cc(NC(=O)c2cc(Cl)cc(S(=O)(=O)N[C@H]3CCOC3)c2F)ccc1F [Compound 123] | > 25000 | 150 | 300 |
| Cc1cc(NC(=O)c2cccc(S(=O)(=O)N[C@H]3CCOC3)c2Cl)ccc1F [Compound 124] | > 25000 | 330 | 680 |
| Cc1cc(NC(=O)c2c(Cl)ccc(S(=O)(=O)N[C@H]3CCOC3)c2Cl)ccc1F [Compound 125] | > 25000 | 1440 | 1150 |
| Cc1cc(NC(=O)c2cccc(S(=O)(=O)N[C@H]3CCOC3)c2C)ccc1F [Compound 126] | > 25000 | 1380 | 890 |
| CC1(NS(=O)(=O)c2cccc(C(=O)Nc3ccc(F)c(CF)c3)c2)COC1 [Compound 127] | > 25000 | 230 | 580 |
| Cc1cc(NC(=O)c2cccc(S(=O)(=O)NC3CC4CCC3O4)c2)ccc1F (stereo not drawn) [Compound 128] | > 25000 | 230 | 540 |
| Cc1cc(NC(=O)c2cccc(S(=O)(=O)N[C@@H]3CCOC3)c2)ccc1F [Compound 129] | > 25000 | 350 | 780 |
| Cc1cc(NC(=O)c2cccc(S(=O)(=O)N[C@H]3CCCC[C@@H]3O)c2)ccc1F [Compound 131] | > 25000 | 2630 | 1740 |
| Cc1cc(NC(=O)c2cccc(S(=O)(=O)N[C@H]3CC[C@H](O)CC3)c2)ccc1F [Compound 133] | > 25000 | 600 | 1690 |
| Cc1cc(NC(=O)c2cccc(S(=O)(=O)N3CC4(COC4)C3)c2)ccc1F [Compound 135] | > 25000 | 560 | 360 |
| Cc1cc(NC(=O)c2cccc(S(=O)(=O)N[C@@H]3c4ccccc4C[C@@H]3O)c2)ccc1F [Compound 136] | > 25000 | 470 | 810 |
| Cc1cc(NC(=O)c2cccc(S(=O)(=O)N[C@@H]3CCc4ccccc4[C@@H]3O)c2)ccc1F [Compound 137] | 23700 | 660 | 920 |
| Cc1cc(NC(=O)c2cccc(S(=O)(=O)N[C@H]3CCC[C@@H]3O)c2)ccc1F [Compound 138] | > 25000 | 1280 | 2270 |
| Cc1cc(NC(=O)c2cccc(S(=O)(=O)N[C@H]3CCC[C@H]3O)c2)ccc1F [Compound 139] | > 25000 | 1000 | 1750 |
| Cc1cc(NC(=O)c2cccc(S(=O)(=O)NC3CCS(=O)(=O)C3)c2)ccc1F (stereo not drawn) [Compound 140] | > 25000 | 1100 | 1120 |
| Cc1cc(NC(=O)c2cccc(S(=O)(=O)NC3Cc4ccccc4C3O)c2)ccc1F (stereo not drawn) [Compound 141] | > 25000 | 360 | 600 |
| Cc1cc(NC(=O)c2cccc(S(=O)(=O)N[C@H](C)[C@H](O)c3ccccc3)c2)ccc1F [Compound 142] | > 25000 | 140 | 560 |
| Cc1cc(NC(=O)c2cccc(S(=O)(=O)N[C@@H](C)[C@H](O)c3ccccc3)c2)ccc1F [Compound 143] | > 25000 | 910 | 2660 |
| Cc1cc(NC(=O)c2cccc(S(=O)(=O)N[C@H](C)[C@@H](O)c3ccccc3)c2)ccc1F [Compound 144] | > 25000 | 130 | 240 |
| Cc1cc(NC(=O)c2cccc(S(=O)(=O)NC3CCC(O)C3)c2)ccc1F (stereo not drawn) [Compound 145] | > 25000 | 220 | 270 |
| Cc1cc(NC(=O)c2cccc(S(=O)(=O)N3CC4(CCOC4)C3)c2)ccc1F [Compound 146] | > 25000 | 450 | 420 |
| Cc1cc(NC(=O)c2cccc(S(=O)(=O)N3CCC34COC4)c2)ccc1F [Compound 147] | > 25000 | 260 | 150 |
| Cc1cc(NC(=O)c2cccc(S(=O)(=O)N[C@@H](C)C3CCCCC3)c2)ccc1F [Compound 148] | 18200 | 900 | 3110 |
| Cc1cc(NC(=O)c2cccc(S(=O)(=O)NC3CCC(F)(F)CC3)c2)ccc1F [Compound 149] | 20800 | 220 | 730 |
| C=CC(C)NS(=O)(=O)c1cccc(C(=O)Nc2ccc(F)c(C)c2)c1 (stereo not drawn) [Compound 150] | > 25000 | 100 | 730 |
| Cc1cc(NC(=O)c2cccc(S(=O)(=O)N[C@@H](C)C(C)C)c2)ccc1F [Compound 151] | > 25000 | 660 | 2740 |
| Cc1cc(NC(=O)c2cccc(S(=O)(=O)N[C@H](C)C3CC3)c2)ccc1F [Compound 152] | > 25000 | < 100 | 570 |
